According to patent US4888336A, “Steroid 5-alpha-reductase inhibitors” (SmithKline Beckman Corporation, priority 1987, dated 1989):
Read-outs that look alike come from different tables or passages of the source.

Legend:
[1] = tested on: Steroid 5-alpha-reductase; conditions: cited from earlier work; for Reversibility of inhibition: Table 1; for Inhibition of steroid 5-alpha-reductase, in words: literature description
[2] = molecular target: T1, human steroid 5-alpha-reductase (Homo sapiens, UniProt P31213); assay: Inhibition of human prostatic steroid 5-alpha-reductase ([14C]-testosterone conversion, Dixon plot); format: biochemical
T1 construct: Prostatic particles were obtained by differential centrifugation; from tissue; host or cells: hyperplastic human prostate, washed 140,000×g particulate fraction
T1 sequence (P31213 1-254): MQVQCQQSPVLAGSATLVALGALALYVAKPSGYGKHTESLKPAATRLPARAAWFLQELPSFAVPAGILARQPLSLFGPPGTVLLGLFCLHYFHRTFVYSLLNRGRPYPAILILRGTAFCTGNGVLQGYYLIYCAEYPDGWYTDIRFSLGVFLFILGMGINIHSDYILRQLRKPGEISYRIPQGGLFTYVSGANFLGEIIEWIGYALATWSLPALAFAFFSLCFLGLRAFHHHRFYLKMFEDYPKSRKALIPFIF
Description: In determining potency in inhibiting the human enzyme, the following procedure was employed:
The tissue was homogenized in 3 to 5 volumes of 20 mM potassium phosphate, pH 6.5, buffer containing 0.33 M sucrose, 1 mM dithiothreitol, and 50 μM NADPH with a Brinkmann Polytron (Sybron Corporation, Westbury, N.Y.).
The resulting pellet was suspended in 20 mM potassium phosphate buffer, pH 6.5, containing 20% glycerol, 1 mM dithiothreitol, and 50 μM NADPH. The suspended particulate solution was stored at -80° C.
After incubating the solution at 37° C. for 20 to 30 minutes the reaction was quenched by the addition of 4 ml ethyl acetate and 0.25 μmol each of testosterone, dihydrotestosterone, androstanediol, and androstanedione as carriers. The organic layer was removed to a second test tube and evaporated to dryness in a Speed Vac. […] The radiochemical content in the bands of the substrate and the products was determined with a BIOSCAN Imaging Scanner (Bioscan, Inc., Washington, D.C.). The percent of recovered radiolabel converted to product was calculated, from which enzyme activity was determined. All incubations were conducted such that no more than 12% of the substrate (testosterone) was consumed.
The experimentally obtained data was computer fitted to a linear function by plotting the reciprocal of the enzyme activity (1/velocity) against the variable inhibitor concentration (Dixon, M. (1953), Biochem. J., 55, 170). Assuming that the steroidal inhibitor is a competitive inhibitor against testosterone, a value for the inhibition constant (Ki) can be calculated from equation 1: […]

[3] = tested on: steroid 5-alpha-reductase; assay: In vivo inhibition of steroid 5-alpha-reductase: T and DHT levels in rat ventral prostate, 6 hours after oral dosing (Table III); set-up: species or system Male Charles River CD rats; conditions: for DHT level / T level: ± SEM
5-alpha-reductase = assay: Time course of in vivo 5-alpha-reductase inhibition: T and DHT in rat ventral prostate (Table IV); set-up: species or system rats; conditions: for DHT level / T level: ventral prostate, mean + SEM; for DHT level: ** P < .05; for T level: listed as name T not given
[4] = read-out: K1 (5-alpha-Reductase Inhibitors)
[5] = human hyperplastic prostate particulate, pH 5.0, 37° C., read-out: Ki

CC(=O)C1CCC2C3CC=C=CC(=O)CCC(=O)C3CCC12C (stereo not shown) [(2)]
Reversibility of inhibition [1]: Irreversible
Ki [1, 4]: 1000 nM

CCN(CC)C(=O)[C@H]1CC[C@H]2[C@@H]3CC[C@H]4N(C)C(=O)CC[C@]4(C)[C@H]3CC[C@]12C [(4)]
Reversibility of inhibition [1]: Reversible
Ki [1, 4]: 5 nM

C[C@@H](CO)[C@H]1CCC2=C3CC[C@H]4N(C)C(=O)CC[C@]4(C)[C@H]3CC[C@@]21C [(1)]
Ki [2]: 450 ± 20 nM

C[C@@H](C(=O)O)[C@H]1CCC2=C3CC[C@H]4N(C)C(=O)CC[C@]4(C)[C@H]3CC[C@@]21C [4-Methyl-4-aza-5-alpha-8(14)-pregnen-3-one-(20R)-20-carboxylic acid]
T/DHT ([3]; 5 mg/kg oral): 0.79
DHT level ([3]; 5 mg/kg oral): 0.43 ± .12 ng/100 mg ventral prostate tissue
T level ([3]; 5 mg/kg oral): 0.34 ± .11 ng/100 mg ventral prostate tissue
T/DHT ([3]; 10 mg/kg oral): 0.76
DHT level ([3]; 10 mg/kg oral): 0.34 ± .09 ng/100 mg ventral prostate tissue
T level ([3]; 10 mg/kg oral): 0.26 ± .07 ng/100 mg ventral prostate tissue
T/DHT ([3]; 20 mg/kg oral): 0.88
DHT level ([3]; 20 mg/kg oral): 0.34 ± .06 ng/100 mg ventral prostate tissue
T level ([3]; 20 mg/kg oral): 0.30 ± .04 ng/100 mg ventral prostate tissue

C=C1C[C@@H]2[C@H](CC[C@@]3(C)[C@H]2CC[C@]3(OC(C)=O)C(C)=O)[C@@]2(C)CCC(=O)C=C12 [(5)]
Reversibility of inhibition [1]: Irreversible
Inhibition of steroid 5-alpha-reductase, in words [1]: time-dependent inactivator
Ki [1, 4]: 1250 nM

CC(C)N(C(=O)[C@H]1CCC2=C3CC[C@H]4N(C)C(=O)CC[C@]4(C)[C@H]3CC[C@@]21C)C(C)C [(3)]
Ki [2, 5]: 8 ± 2 nM

C[C@]12CC[C@H]3[C@@H](CCC4=CC(=O)CC[C@@]43C)[C@@H]1CC[C@@H]2C(=O)O [(1)]
Reversibility of inhibition [1]: Reversible
Ki [1, 4]: 1100 nM

C[C@@H](C(=O)O)[C@H]1CCC2=C3CC[C@H]4N(C)C(=O)CC[C@]4(C)[C@H]3CC[C@@]21C [(2)]
Ki [2, 5]: 100 ± 10 nM

C[C@@H](CO)[C@H]1CCC2=C3CC[C@H]4N(C)C(=O)CC[C@]4(C)[C@H]3CC[C@@]21C [(20R)-Hydroxymethyl-4-methyl-4-aza-5-alpha-8(14)-pregnen-3-one]
T/DHT ([3]; 5 mg/kg oral): 0.72
DHT level ([3]; 5 mg/kg oral): 0.72 ± .21 ng/100 mg ventral prostate tissue
T level ([3]; 5 mg/kg oral): 0.52 ± .27 ng/100 mg ventral prostate tissue
T/DHT ([3]; 10 mg/kg oral): 0.83
DHT level ([3]; 10 mg/kg oral): 0.53 ± .12 ng/100 mg ventral prostate tissue
T level ([3]; 10 mg/kg oral): 0.44 ± .13 ng/100 mg ventral prostate tissue
T/DHT ([3]; 20 mg/kg oral): 0.92
DHT level ([3]; 20 mg/kg oral): 0.49 ± .14 ng/100 mg ventral prostate tissue
T level ([3]; 20 mg/kg oral): 0.45 ± .12 ng/100 mg ventral prostate tissue

CC(C)N(C(=O)[C@H]1CCC2=C3CC[C@H]4N(C)C(=O)CC[C@]4(C)[C@H]3CC[C@@]21C)C(C)C [4-Methyl-4-aza-5-alpha-8(14)-androsten-3-one-17β-N,N-diisopropylcarboxamide]
T/DHT (5-alpha-reductase; 1 Hour): 1.00
DHT level (5-alpha-reductase; 1 Hour): .532 ± .08 ng/100 mg tissue
T level (5-alpha-reductase; 1 Hour): .533 ± .15 ng/100 mg tissue
T/DHT (5-alpha-reductase; 2 Hours): .97
DHT level (5-alpha-reductase; 2 Hours): .496 ± .05 ng/100 mg tissue
T level (5-alpha-reductase; 2 Hours): .481 ± .12 ng/100 mg tissue
T/DHT (5-alpha-reductase; 4 Hours): 1.20
DHT level (5-alpha-reductase; 4 Hours): .504 ± .09 ng/100 mg tissue
T level (5-alpha-reductase; 4 Hours): .607 ± .24 ng/100 mg tissue
T/DHT (5-alpha-reductase; 8 Hours): 1.13
DHT level (5-alpha-reductase; 8 Hours): .498 ± .04 ng/100 mg tissue
T level (5-alpha-reductase; 8 Hours): .565 ± .16 ng/100 mg tissue
Difference in DHT levels compared to controls, in words (5-alpha-reductase; at 1, 2, 4, and 8 hours, P < .05): significant differences in DHT levels

CC(CO)[C@H]1CC[C@H]2[C@@H]3CC[C@H]4C(=[N+]=[N-])C(=O)CC[C@]4(C)[C@H]3CC[C@]12C (stereo partly shown) [(3)]
Reversibility of inhibition [1]: Irreversible
Ki ([1]; line (3) printed without unit, read-out: K1 (5-alpha-Reductase Inhibitors), unit inferred): 35 nM
Inhibition of steroid 5-alpha-reductase, in words [1]: potent, time-dependent inhibitor
